From ChEMBL document CHEMBL1212897 (J Med Chem, 2010) come the findings set out here.

Structures are written as SMILES. Where only a bound is given, the exact number is not on record here.

Broadly, the IC50 is the concentration that gives 50% inhibition. Read a low IC50 as greater potency in that assay.

The target in one experiment is Voltage-gated inwardly rectifying potassium channel KCNH2 (Homo sapiens, UniProt Q12809).
Voltage-gated inwardly rectifying potassium channel KCNH2, sequence (Q12809 whole entry): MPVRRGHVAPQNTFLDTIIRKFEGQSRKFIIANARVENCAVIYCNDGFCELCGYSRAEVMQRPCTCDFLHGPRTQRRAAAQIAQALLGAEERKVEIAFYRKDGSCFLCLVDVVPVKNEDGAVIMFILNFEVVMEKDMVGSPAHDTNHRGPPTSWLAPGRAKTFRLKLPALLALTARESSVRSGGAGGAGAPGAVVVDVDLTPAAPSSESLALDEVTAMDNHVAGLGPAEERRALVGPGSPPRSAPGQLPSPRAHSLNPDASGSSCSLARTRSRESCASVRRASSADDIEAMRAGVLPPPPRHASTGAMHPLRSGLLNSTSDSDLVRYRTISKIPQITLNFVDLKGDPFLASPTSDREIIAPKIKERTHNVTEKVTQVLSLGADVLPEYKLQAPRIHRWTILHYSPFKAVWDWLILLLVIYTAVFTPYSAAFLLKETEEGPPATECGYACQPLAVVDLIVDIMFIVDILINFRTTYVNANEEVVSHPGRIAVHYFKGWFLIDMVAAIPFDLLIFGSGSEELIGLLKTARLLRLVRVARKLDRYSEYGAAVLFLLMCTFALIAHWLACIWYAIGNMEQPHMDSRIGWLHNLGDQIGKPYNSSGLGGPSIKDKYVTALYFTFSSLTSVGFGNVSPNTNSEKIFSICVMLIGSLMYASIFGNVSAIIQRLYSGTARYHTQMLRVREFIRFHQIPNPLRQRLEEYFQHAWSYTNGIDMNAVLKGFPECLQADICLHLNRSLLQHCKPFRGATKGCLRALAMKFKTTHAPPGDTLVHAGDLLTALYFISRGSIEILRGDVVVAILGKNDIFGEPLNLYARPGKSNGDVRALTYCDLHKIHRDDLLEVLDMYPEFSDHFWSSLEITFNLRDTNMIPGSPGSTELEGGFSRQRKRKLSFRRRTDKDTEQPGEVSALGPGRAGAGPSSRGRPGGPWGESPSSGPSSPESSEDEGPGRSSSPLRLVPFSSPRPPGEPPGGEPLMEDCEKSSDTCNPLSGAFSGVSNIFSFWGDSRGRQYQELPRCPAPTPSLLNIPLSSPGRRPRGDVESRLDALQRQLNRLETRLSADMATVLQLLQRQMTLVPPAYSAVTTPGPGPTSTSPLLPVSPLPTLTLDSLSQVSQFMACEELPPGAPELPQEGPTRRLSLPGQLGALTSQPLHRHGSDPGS
The molecule `CN(C)CCN(C)C(=O)c1ccc(C2=NN(c3ccc(C#N)cc3)C(c3ccc(F)cc3)C2)cc1` (racemic) gave an IC50 of 170 nM.

The next experiment addresses T1, Mineralocorticoid receptor (Homo sapiens, UniProt P08235).
T1 sequence (P08235 whole entry): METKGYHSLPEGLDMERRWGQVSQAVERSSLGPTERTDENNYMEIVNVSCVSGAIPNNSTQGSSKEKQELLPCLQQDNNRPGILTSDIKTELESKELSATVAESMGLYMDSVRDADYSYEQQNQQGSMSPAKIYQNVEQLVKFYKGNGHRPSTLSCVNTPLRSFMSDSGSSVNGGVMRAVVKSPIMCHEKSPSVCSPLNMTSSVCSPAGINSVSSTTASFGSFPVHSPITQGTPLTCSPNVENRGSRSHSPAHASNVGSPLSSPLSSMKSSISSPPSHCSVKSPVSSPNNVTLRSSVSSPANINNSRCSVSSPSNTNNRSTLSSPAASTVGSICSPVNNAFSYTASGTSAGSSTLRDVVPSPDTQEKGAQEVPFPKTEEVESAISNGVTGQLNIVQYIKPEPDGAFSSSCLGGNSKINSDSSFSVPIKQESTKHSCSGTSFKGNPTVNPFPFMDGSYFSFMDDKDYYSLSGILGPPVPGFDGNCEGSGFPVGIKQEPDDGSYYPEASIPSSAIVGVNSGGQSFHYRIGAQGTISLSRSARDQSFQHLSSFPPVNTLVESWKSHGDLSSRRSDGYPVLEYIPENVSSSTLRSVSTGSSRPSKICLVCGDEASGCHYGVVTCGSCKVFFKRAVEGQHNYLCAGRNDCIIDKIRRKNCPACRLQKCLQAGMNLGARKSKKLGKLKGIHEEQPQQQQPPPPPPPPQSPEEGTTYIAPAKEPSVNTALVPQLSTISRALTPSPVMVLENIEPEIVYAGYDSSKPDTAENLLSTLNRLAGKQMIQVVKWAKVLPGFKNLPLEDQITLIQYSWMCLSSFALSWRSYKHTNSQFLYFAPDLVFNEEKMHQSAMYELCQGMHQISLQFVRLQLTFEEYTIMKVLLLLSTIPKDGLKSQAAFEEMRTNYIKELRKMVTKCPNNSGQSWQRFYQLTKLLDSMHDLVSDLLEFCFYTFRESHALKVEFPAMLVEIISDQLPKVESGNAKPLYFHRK
The format is functional, cell-based, Huh-7.
Regarding `N#Cc1ccc(N2N=C3c4ccc(C(=O)O)cc4CO[C@H]3[C@H]2C2CCCC2)cc1Cl` (stereo in doubt), it took 146 nM to reach half-maximal inhibition (IC50).

Regarding `N#Cc1ccc(N2N=C(c3ccc(C(=O)O)c(Cl)c3)C[C@@H]2C2CCCC2)cc1Cl`, the IC50 was found to be 26 nM.

`N#Cc1ccc(N2N=C(c3ccc(CC(=O)O)cc3)C[C@@H]2C2CCCC2)cc1Cl` showed an IC50 of 135 nM. For the molecule `COc1cccc(C2CC(c3ccc(C(=O)O)cc3)=NN2c2ccc(C#N)cc2)c1` (racemic), the IC50 worked out at 1590 nM. The same measure, in the same setting: as for `N#Cc1ccc(N2N=C(c3ccc(C(=O)O)cc3)CC2c2ccc(F)cc2)cc1F` (racemic), the figure is 243 nM; as for `CN(C)CCN(C)C(=O)c1ccc(C2=NN(c3ccc(C#N)cc3)C(c3ccc(F)cc3)C2)cc1` (racemic), 83 nM. `N#Cc1ccc(N2N=C3c4ccc(C(=O)O)cc4CC[C@@H]3[C@@H]2C2CC=CC2)cc1Cl` (racemic): the IC50 is 15 nM. As to `N#Cc1ccc(N2N=C3c4ccc(C(=O)O)cc4CC[C@@H]3[C@@H]2C2CCCC2)cc1O` (racemic), the 50% inhibitory concentration (IC50) is above 500 nM. The same measure, in the same setting: as for `N#Cc1ccc(N2N=C(c3ccc(C(=O)O)cc3)CC2c2ccc(F)cc2)cc1C#N` (racemic), the figure is above 1000 nM.

As to `N#Cc1ccc(N2N=C3c4ccc(C(=O)O)cc4CC[C@@H]3[C@@H]2C2CCCO2)cc1Cl` (mixture of isomers), inhibition was half-maximal at 720 nM (IC50). `N#Cc1ccc(N2N=C(c3ccc(C(=O)O)cc3)CC2c2ccncc2)cc1` (racemic) returned an IC50 above 10000 nM.

As to `N#Cc1ccc(N2N=C(c3ccc(C(=O)O)cc3)CC2Cc2ccccc2)cc1` (racemic), the half-inhibitory concentration (IC50) was 3650 nM.

`CC(C)CC1CC(c2ccc(C(=O)O)cc2)=NN1c1ccc(C#N)cc1` (racemic) returned an IC50 of 2530 nM.

For `O=C(O)c1ccc(C2=NN(c3ccccc3)C(c3ccc(F)cc3)C2)cc1` (racemic), the IC50 is 9730 nM. The same measure, in the same setting: as for `CCOC(=O)c1ccc(N2N=C(c3ccc(C(=O)O)cc3)CC2c2ccc(F)cc2)cc1` (racemic), the figure is 180 nM.

Molecule `Cc1cc(N2N=C3c4ccc(C(=O)O)cc4CC[C@@H]3[C@@H]2C2CCCC2)ccc1C#N` (racemic) had an IC50 of 4 nM. On the same count and under the same terms, as for `N#Cc1ccc(N2N=C3c4ccc(C(=O)O)cc4CC[C@H]3[C@H]2c2ccc(F)cc2)cc1Cl` (racemic), the figure is 223 nM. The molecule `N#Cc1ccc(N2N=C(c3ccc(C(=O)O)cc3)CC2c2ccc(F)cc2)c(F)c1` (racemic) came in with a half-inhibitory concentration (IC50) of 535 nM. Still for that read-out and setting: as for `N#Cc1ccc(N2N=C(c3ccc(C(=O)O)c(OC(F)(F)F)c3)C[C@@H]2C2CCCC2)cc1Cl`, the figure is 80 nM; as for `N#Cc1ccc(N2N=C(c3ccc(C(=O)O)cc3)CC2c2cccnc2)cc1` (racemic), above 10000 nM; as for `COCc1cc(N2N=C3c4ccc(C(=O)O)cc4CC[C@@H]3[C@@H]2C2CCCC2)ccc1C#N`, 150 nM.

For the molecule `N#Cc1ccc(N2N=C3c4ccc(C(=O)O)cc4CC[C@@H]3[C@@H]2C2CCC2)cc1Cl` (racemic), half-maximal inhibition (IC50) was put at 21 nM. For the molecule `CC(C)C1CC(c2ccc(C(=O)O)cc2)=NN1c1ccc(C#N)c(Cl)c1` (racemic), half-maximal inhibition (IC50) was put at 383 nM.

Turning to `COc1cc(N2N=C3c4ccc(C(=O)O)cc4CC[C@@H]3[C@@H]2C2CCCC2)ccc1C#N` (racemic), the IC50 worked out at 7 nM. In turn, `N#Cc1ccc(N2N=C3c4ccc(C(=O)O)cc4CO[C@@H]3[C@@H]2c2ccc(F)cc2)cc1Cl` (racemic) displayed a concentration for half-maximal inhibition (IC50) of 849 nM.

Turning to `COc1cc(C(=O)O)ccc1C1=NN(c2ccc(C#N)c(Cl)c2)[C@@H](C2CCCC2)C1`, 2 nM corresponded to half-maximal inhibition (IC50).

The molecule `N#Cc1ccc(N2N=C(c3ccc(C(=O)O)cc3)CC2c2ccco2)cc1` (racemic) had an IC50 of 410 nM.

Consider `COc1cc(C2=NN(c3ccc(C#N)c(Cl)c3)[C@@H](C3CCCC3)C2C)ccc1C(=O)O` (single isomer, unassigned), for which the half-maximal inhibitory concentration (IC50) is 69 nM. For `N#Cc1ccc(N2N=C(c3ccc(C(=O)O)cc3)C[C@@H]2c2ccc(F)cc2)cc1`, the IC50 is 101 nM. Same read-out and setting: as for `Cc1nc(C)c(C2=NN(c3ccc(C#N)cc3)[C@@H](c3ccc(F)cc3)C2)s1`, the figure is 32 nM; as for `N#Cc1ccc(N2N=C(c3ccc(C(=O)O)cc3)CC2c2cccs2)cc1` (racemic), 763 nM. On the same count and under the same terms, as for `N#Cc1ccc(N2N=C3c4ccc(C(=O)O)cc4CC[C@@H]3[C@@H]2c2ccc(F)cc2)cc1` (racemic), the figure is 553 nM.

Take `N#Cc1ccc(N2N=C(c3ccc(C(=O)O)c(F)c3)C[C@@H]2C2CCCC2)cc1Cl`: half-maximal inhibition (IC50) required 52 nM.

On to `N#Cc1ccc(N2N=C(c3ccc(C(=O)O)cc3)CC2C2CCCC2)cc1` (racemic), for which the IC50 was 151 nM.

On to `Cc1cc(N2N=C3c4ccc(C(=O)O)cc4CO[C@H]3[C@H]2C2CCCC2)ccc1C#N` (racemic), for which it took 39 nM to reach half-maximal inhibition (IC50).

In turn, `N#Cc1ccc(N2N=C(c3ccc(C(=O)O)c(OCCCO)c3)C[C@@H]2C2CCCC2)cc1Cl` gave a half-maximal inhibitory concentration (IC50) of 13 nM. Same read-out and setting: as for `COc1ccc(N2N=C(c3ccc(C(=O)O)cc3)CC2c2ccc(F)cc2)cc1` (racemic), the figure is 1440 nM; as for `O=[N+]([O-])c1ccc(N2N=C(c3ccc(O)cc3)CC2c2ccc(F)cc2)cc1` (racemic), 460 nM. The same measure, in the same setting: as for `N#Cc1ccc(N2N=C3c4ccc(C(=O)O)cc4CC[C@@H]3[C@@H]2C2CCCC2)cc1OCc1ccccc1` (racemic), the figure is 488 nM; as for `N#Cc1ccc(N2N=C(c3ccc(C(=O)O)cc3)CC2C2CCCCC2)cc1` (racemic), 1290 nM; as for `Cc1cc(N2N=C(c3ccc(C(=O)O)cc3)CC2c2ccc(F)cc2)ccc1C#N` (racemic), 56 nM. The same measure, in the same setting: as for `N#Cc1ccc(N2N=C(c3ccc(C(=O)O)cc3)C[C@H]2c2ccc(F)cc2)cc1`, the figure is 8360 nM; as for `O=C(O)c1ccc(C2=NN(c3ccc(C(=O)O)cc3)C(c3ccc(F)cc3)C2)cc1` (racemic), above 10000 nM; as for `N#Cc1ccc(N2N=C(c3ccc(C(=O)O)cc3)CC2c2ccccn2)cc1` (racemic), above 10000 nM. In turn, `N#Cc1ccc(N2N=C3c4ccc(C(=O)O)cc4CO[C@@H]3[C@@H]2C2CCCC2)cc1Cl` (stereo in doubt) displayed an IC50 of 65 nM.

The molecule `N#Cc1ccc(N2N=C(c3ccc(C(=O)O)cc3)CC2c2ccc(F)cc2)cc1Cl` (racemic) had a half-inhibitory concentration (IC50) of 56 nM. Still for that read-out and setting: as for `N#Cc1ccc(N2N=C(c3ccc(C(=O)O)cc3)CC2c2cccc(F)c2)cc1` (racemic), the figure is 441 nM; as for `N#Cc1ccc(N2N=C(c3ccc(C(=O)O)cc3)CC2c2ccc(F)cc2)cc1C(F)(F)F` (racemic), 127 nM; as for `N#Cc1ccc(N2N=C(c3ccc(C(=O)O)cc3)CC2c2ccc(F)cc2)c(Cl)c1` (racemic), 284 nM. The same measure, in the same setting: as for `N#Cc1ccc(N2N=C(c3ccc4[nH]c(=O)oc4c3)C[C@H]2c2ccc(F)cc2)cc1`, the figure is 2080 nM; as for `N#Cc1ccc(N2N=C3c4ccc(C(=O)O)cc4C[C@@H]3[C@@H]2c2ccc(F)cc2)cc1` (racemic), 4340 nM; as for `N#Cc1ccc(N2N=C(c3ccc4[nH]c(=O)oc4c3)CC2c2ccc(F)cc2)cc1` (racemic), 58 nM. The same measure, in the same setting: as for `N#Cc1ccc(N2N=C(c3ccc(C(=O)O)cc3)CC2C2CCCC2)cc1Cl` (racemic), the figure is 54 nM. In turn, `N#Cc1ccc(N2N=C3c4ccc(C(=O)O)cc4CC[C@@H]3[C@@H]2C2C=CC=CO2)cc1Cl` (mixture of isomers) displayed an IC50 of 127 nM.
